According to ChEMBL document CHEMBL1201862, “PubChem BioAssay data set” (2004):
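96-well plates; 48 h exposure; 5 concentrations. Endpoints by linear interpolation between flanking doses. Not reached: highest tested concentration assigned. Here, GI50 denotes the concentration required for 50% inhibition of growth.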 Calls of active or inactive are those of the source. No stated cut-off is given here; in the data, active = GI50 up to about 1.1 µM and inactive = higher.

Legend:
Test in all cases: inhibition of tumour cell growth, NCI panel, 48 h
[1] = test system: MDA-MB-231
[2] = test system: UACC-257
[3] = test system: SF-268
[4] = test system: SK-MEL-2
[5] = test system: HCC 2998
[6] = test system: A498
[7] = test system: CCRF-CEM
[8] = test system: OVCAR-4
[9] = test system: MDA-MB-435
[10] = test system: K562
[11] = test system: HL-60
[12] = test system: MCF7
[13] = test system: PC-3
[14] = test system: SNB-75
[15] = test system: UACC-62
[16] = test system: NCI/ADR-RES
[17] = test system: EKVX
[18] = test system: MDA-N
[19] = test system: NCI-H226
[20] = test system: BT-549

Compound	GI50 [1]	GI50 [2]	GI50 [3]	GI50 [4]	GI50 [5]	GI50 [6]	GI50 [7]	GI50 [8]	GI50 [9]	GI50 [10]	GI50 [11]	GI50 [12]	GI50 [13]	GI50 [14]	GI50 [15]	GI50 [16]	GI50 [17]	GI50 [18]	GI50 [19]	GI50 [20]
CC1C[C@]2(C)C(=O)N(c3ccccc3)C(=N)[C@@H]2N(C)c2ccccc21 (some centres undefined)	> 100 µM (inactive)	> 100 µM (inactive)	> 100 µM (inactive)	> 100 µM (inactive)	> 100 µM (inactive)	> 100 µM (inactive)	> 100 µM (inactive)	> 100 µM (inactive)	> 100 µM (inactive)	> 100 µM (inactive)	> 100 µM (inactive)	> 100 µM (inactive)	> 100 µM (inactive)	79.3 µM (inactive)	> 100 µM (inactive)	> 100 µM (inactive)	> 100 µM (inactive)	> 100 µM (inactive)	> 100 µM (inactive)	
O=C(Nc1ccccc1F)c1cc2ccc(O)cc2o/c1=N\c1ccccc1F		2.74 µM (inactive)	2.27 µM (inactive)	1.84 µM (inactive)	2.99 µM (inactive)		1.5 µM (inactive)	1.85 µM (inactive)	2.03 µM (inactive)	2.15 µM (inactive)	2.09 µM (inactive)	3.2 µM (inactive)	2.58 µM (inactive)		2.37 µM (inactive)	2.42 µM (inactive)	2.75 µM (inactive)	2.29 µM (inactive)		2.83 µM (inactive)
CCOC(=O)/C(=C\NC(C)(C)C)c1nc2ccccc2o1		20.1 µM (inactive)	37.8 µM (inactive)			27.9 µM (inactive)	16.3 µM (inactive)	31.4 µM (inactive)	33.3 µM (inactive)		2.42 µM (inactive)	29.3 µM (inactive)		31.9 µM (inactive)	18.4 µM (inactive)	35.6 µM (inactive)	> 100 µM (inactive)	32 µM (inactive)	20.9 µM (inactive)	26.7 µM (inactive)
CCOC(=O)c1cc(-c2ccc([N+](=O)[O-])cc2)c([N+](=O)[O-])[nH]1	0.37 µM (active)	1.6 µM (inactive)	4.53 µM (inactive)	2.72 µM (inactive)	4.38 µM (inactive)		2.6 µM (inactive)	4.23 µM (inactive)	2.75 µM (inactive)	3.48 µM (inactive)				> 10 µM (inactive)	3.03 µM (inactive)	3.1 µM (inactive)	2.51 µM (inactive)		1.46 µM (inactive)	3.4 µM (inactive)
O=C1CC2(CCCc3sccc32)C(=O)N1 (centres undefined)	> 100 µM (inactive)	> 100 µM (inactive)	> 100 µM (inactive)	> 100 µM (inactive)	> 100 µM (inactive)	> 100 µM (inactive)	> 100 µM (inactive)	> 100 µM (inactive)	> 100 µM (inactive)	> 100 µM (inactive)	> 100 µM (inactive)	> 100 µM (inactive)	> 100 µM (inactive)	> 100 µM (inactive)	> 100 µM (inactive)	> 100 µM (inactive)	> 100 µM (inactive)	> 100 µM (inactive)	> 100 µM (inactive)	
O=C1C(Cl)=C(OCCCCl)C(=O)c2c(O)ccc(O)c21	2.31 µM (inactive)	2.32 µM (inactive)	3.08 µM (inactive)		14.8 µM (inactive)	15.2 µM (inactive)	0.0316 µM (active)	2.74 µM (inactive)		0.401 µM (active)	0.0715 µM (active)	1.55 µM (inactive)	3.99 µM (inactive)	2 µM (inactive)	1.77 µM (inactive)	3.69 µM (inactive)	17.7 µM (inactive)	1.52 µM (inactive)	16.9 µM (inactive)	1.92 µM (inactive)
Cc1ccc(S(=O)(=O)n2c3c(c4ccccc42)CCN2C[C@H]([C@H](C)Br)CC[C@@H]32)cc1	> 100 µM (inactive)	> 100 µM (inactive)	> 100 µM (inactive)	> 100 µM (inactive)	82.8 µM (inactive)	> 100 µM (inactive)	86.7 µM (inactive)	> 100 µM (inactive)	32.1 µM (inactive)	25.7 µM (inactive)	6.46 µM (inactive)	91.8 µM (inactive)	> 100 µM (inactive)	> 100 µM (inactive)	> 100 µM (inactive)	> 100 µM (inactive)	> 100 µM (inactive)	> 100 µM (inactive)	> 100 µM (inactive)	
O/N=C1\CSc2ccccc2C1	> 100 µM (inactive)	> 100 µM (inactive)	> 100 µM (inactive)	> 100 µM (inactive)	> 100 µM (inactive)	51.6 µM (inactive)	> 100 µM (inactive)	> 100 µM (inactive)	> 100 µM (inactive)	> 100 µM (inactive)	5.33 µM (inactive)	> 100 µM (inactive)	> 100 µM (inactive)		> 100 µM (inactive)	> 100 µM (inactive)	30.6 µM (inactive)	> 100 µM (inactive)	> 100 µM (inactive)	
